US20130090377A1, “COMPOSITION COMPRISING COUMESTROL OR A BEAN EXTRACT CONTAINING COUMESTROL” (AMOREPACIFIC CORPORATION, priority 2010, published 2013)

What was measured:
C2C12 muscle cells [1] = test: Expression of mitochondria-associated genes at the protein level by western blotting in differentiated C2C12 muscle cells; assay type: cell-based, mouse; design: dose or concentration left out as unconfirmed; details: coumestrol for 24 hours, C2C12 differentiated for a week, FIG. 2
Procedure: (§1) C2C12 muscle cells derived from mouse (mouse myoblasts, ATCC) were differentiated for a week and then treated with […] coumestrol for 24 hours. Then, the expression of mitochondria-associated genes was confirmed at the protein level by western blotting. The tested genes were PGC1 which induces mitochondria biosynthesis and NDUFA9 and ATP5a which are proteins that constitute the mitochondrial electron transport chain.

C2C12 muscle cells [2] = test: Quantity of mitochondria in cells by fluorescence after MitoTracker Green staining; assay type: cell-based, mouse; details: coumestrol-treated C2C12 muscle cells, FIG. 3
Procedure: as §1
Also, the quantity of mitochondria in cells was measured by fluorescence after staining with MitoTracker Green (Invitrogen).

SIRT1 = molecular target: T1, SIRT1 (Homo sapiens, UniProt Q96EB6); test: SIRT1 activity assay kit (Biomol), SIRT1 activating effect; assay type: biochemical; details: FIG. 1
T1 construct: Biomol
T1 sequence (Q96EB6 1-747): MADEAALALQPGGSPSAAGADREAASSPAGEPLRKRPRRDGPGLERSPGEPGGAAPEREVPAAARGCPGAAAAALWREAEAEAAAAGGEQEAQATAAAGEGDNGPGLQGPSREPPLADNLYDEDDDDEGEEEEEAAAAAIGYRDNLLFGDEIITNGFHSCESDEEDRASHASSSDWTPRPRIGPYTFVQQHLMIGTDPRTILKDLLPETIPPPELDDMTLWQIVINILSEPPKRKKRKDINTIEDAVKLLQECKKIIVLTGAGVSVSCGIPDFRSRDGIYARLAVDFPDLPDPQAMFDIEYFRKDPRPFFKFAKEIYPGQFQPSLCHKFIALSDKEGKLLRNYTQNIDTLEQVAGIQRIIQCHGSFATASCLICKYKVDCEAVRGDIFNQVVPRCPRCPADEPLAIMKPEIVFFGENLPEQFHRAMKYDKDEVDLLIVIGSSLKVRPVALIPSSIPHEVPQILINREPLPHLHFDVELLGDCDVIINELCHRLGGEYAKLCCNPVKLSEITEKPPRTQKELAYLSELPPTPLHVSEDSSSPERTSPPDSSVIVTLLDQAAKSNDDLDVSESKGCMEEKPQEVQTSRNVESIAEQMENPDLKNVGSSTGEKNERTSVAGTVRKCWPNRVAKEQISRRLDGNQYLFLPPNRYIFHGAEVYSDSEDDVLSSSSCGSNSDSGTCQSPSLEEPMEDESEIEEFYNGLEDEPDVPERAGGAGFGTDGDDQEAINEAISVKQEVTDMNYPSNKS
Procedure: It was tested whether coumestrol can activate SIRT1 using the SIRT1 activity assay kit (Biomol). Cells were treated with 10 μM coumestrol. 50 µM resveratrol (Res), which is known to activate SIRT1, was used as positive control and 1 mM nicotinamide (NAM), which is an inhibitor of SIRT1, was used as negative control.

O=c1oc2cc(O)ccc2c2oc3cc(O)ccc3c12 [coumestrol, 3,9-dihydroxy-6H-benzofuro(3,2-c)(1)benzopyran-6-one] was tested, and the “expression of mitochondria-associated genes (PGC1, NDUFA9, ATP5a) at the protein level vs untreated group” value (C2C12 muscle cells [1]) was “remarkable increase”, the “quantity of mitochondria in cells vs untreated group” value (C2C12 muscle cells [2]) was “remarkable increase” and the “SIRT1 activating effect compared with resveratrol (positive control)” value (SIRT1; 10 μM coumestrol vs 50 µM resveratrol) was “comparable to that of resveratrol”. For the same molecule, the “SIRT1 activity relative to the untreated group” value (SIRT1; 10 μM coumestrol) was “increased”.
